Data reported in ChEMBL document CHEMBL1201861, “Genomics of Drug Sensitity in Cancer screening data, Wellcome Trust Sanger Institute”.

Experiments:
Test in all cases: cells
[1] = test system: P12-Ichikawa; format: functional, cell-based, Homo sapiens; settings: Homo sapiens, P12-Ichikawa
[2] = test system: NCI-H727; format: functional, cell-based, Homo sapiens; settings: Homo sapiens, NCI-H727;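 note: growth inhibition of human NCI-H727 cells, read out with a cell viability assay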
Description: SANGER: Inhibition of human NCI-H727 cell growth in a cell viability assay.

[3] = test system: C-33-A; format: functional, cell-based, Homo sapiens; settings: Homo sapiens, C-33-A;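 note: cell viability assay measuring growth inhibition of C-33-A cells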
Description: SANGER: Inhibition of human C-33-A cell growth in a cell viability assay.

[4] = test system: BFTC-905; format: functional, cell-based, Homo sapiens; settings: Homo sapiens, BFTC-905
Description: SANGER: Inhibition of human BFTC-905 cell growth in a cell viability assay.

[5] = test system: NCI-H1563; format: functional, cell-based, Homo sapiens; settings: Homo sapiens, NCI-H1563;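 note: growth inhibition of human NCI-H1563 cells, read out with a cell viability assay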
Description: SANGER: Inhibition of human NCI-H1563 cell growth in a cell viability assay.

[6] = test system: DU-145; format: functional, cell-based, Homo sapiens; settings: Homo sapiens, DU-145
Description: SANGER: Inhibition of human DU-145 cell growth in a cell viability assay.

[7] = test system: H-EMC-SS; format: functional, cell-based, Homo sapiens; settings: Homo sapiens, H-EMC-SS
Description: SANGER: Inhibition of human H-EMC-SS cell growth in a cell viability assay.

[8] = test system: OVCAR-5; format: functional, cell-based, Homo sapiens; settings: Homo sapiens, OVCAR-5;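 note: growth inhibition of human OVCAR-5 cells, read out with a cell viability assay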
Description: SANGER: Inhibition of human OVCAR-5 cell growth in a cell viability assay.

[9] = test system: HuCCT-1; format: functional, cell-based, Homo sapiens, HuCCT1; settings: Homo sapiens, HuCCT-1;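 note: growth inhibition of HuCCT-1 cells, read out by a cell viability assay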
Description: SANGER: Inhibition of human HuCCT1 cell growth in a cell viability assay.

[10] = test system: LCLC-97TM1; format: functional, cell-based, Homo sapiens; settings: Homo sapiens, LCLC-97TM1;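 note: cell viability assay measuring growth inhibition of human LCLC-97TM1 cells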
Description: SANGER: Inhibition of human LCLC-97TM1 cell growth in a cell viability assay.

[11] = test system: MDA-MB-361; format: functional, cell-based, Homo sapiens; settings: Homo sapiens, MDA-MB-361
[12] = test system: NCI-H1755; format: functional, cell-based, Homo sapiens; settings: Homo sapiens, NCI-H1755;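 note: cell viability readout used to measure growth inhibition of NCI-H1755 cells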
Description: SANGER: Inhibition of human NCI-H1755 cell growth in a cell viability assay.

[13] = test system: A2058; format: functional, cell-based, Homo sapiens; settings: Homo sapiens, A2058;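 note: reduction of A2058 cell growth, read out with a viability assay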
Description: SANGER: Inhibition of human A2058 cell growth in a cell viability assay.

[14] = test system: SF-295; format: functional, cell-based, Homo sapiens; settings: Homo sapiens, SF-295;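 note: growth inhibition of SF-295 cells, read out with a cell viability assay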
Description: SANGER: Inhibition of human SF295 cell growth in a cell viability assay.

[15] = test system: HT-1376; format: functional, cell-based, Homo sapiens; settings: Homo sapiens, HT-1376
Description: SANGER: Inhibition of human HT-1376 cell growth in a cell viability assay.

[16] = test system: SW 1116; format: functional, cell-based, Homo sapiens; settings: Homo sapiens, SW 1116;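 note: growth inhibition of SW1116 cells, read out with a cell viability assay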
Description: SANGER: Inhibition of human SW1116 cell growth in a cell viability assay.

[17] = test system: NCI-H810; format: functional, cell-based, Homo sapiens; settings: Homo sapiens, NCI-H810;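 note: IC50 reflects inhibition of cancer cell line growth, read out with a cell viability assay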
Description: SANGER: Inhibition of human NCI-H810 cell growth in a cell viability assay.

[18] = test system: HT1197; format: functional, cell-based, Homo sapiens, HT-1197; settings: Homo sapiens, HT1197
Description: SANGER: Inhibition of human HT-1197 cell growth in a cell viability assay.

[19] = test system: ACHN; format: functional, cell-based, Homo sapiens; settings: Homo sapiens, ACHN;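 note: cell viability read-out used to gauge how strongly growth of human ACHN cells is suppressed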
Description: SANGER: Inhibition of human ACHN cell growth in a cell viability assay.

[20] = test system: ASPC1; format: functional, cell-based, Homo sapiens; settings: Homo sapiens, ASPC1;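 note: growth inhibition of AsPC-1 cells, read out with a cell viability assay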
Description: SANGER: Inhibition of human AsPC-1 cell growth in a cell viability assay.

[21] = test system: SK-MEL3; format: functional, cell-based, Homo sapiens, SK-MEL-3; settings: Homo sapiens, SK-MEL3;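 note: growth inhibition of human SK-MEL-3 cells, read out with a cell viability assay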
Description: SANGER: Inhibition of human SK-MEL-3 cell growth in a cell viability assay.

[22] = test system: ZR-75-30; format: functional, cell-based, Homo sapiens; settings: Homo sapiens, ZR-75-30;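 note: growth inhibition of ZR-75-30 cells, measured with a cell viability readout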
Description: SANGER: Inhibition of human ZR-75-30 cell growth in a cell viability assay.

[23] = test system: KYSE-510; format: functional, cell-based, Homo sapiens; settings: Homo sapiens, KYSE-510;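 note: cell viability readout used to measure how strongly growth of the cell line is suppressed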
Description: SANGER: Inhibition of human KYSE-510 cell growth in a cell viability assay.

[24] = test system: CP50-MEL-B; format: functional, cell-based, Homo sapiens; settings: Homo sapiens, CP50-MEL-B;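 note: growth inhibition of the human cell line, measured with a cell viability read-out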
Description: SANGER: Inhibition of human CP50-MEL-B cell growth in a cell viability assay.

[25] = test system: NCI-H2052; format: functional, cell-based, Homo sapiens; settings: Homo sapiens, NCI-H2052;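 note: growth inhibition of NCI-H2052 cells, read out with a cell viability assay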
Description: SANGER: Inhibition of human NCI-H2052 cell growth in a cell viability assay.

[26] = test system: SCC-9; format: functional, cell-based, Homo sapiens; settings: Homo sapiens, SCC-9;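 note: Read-out is a cell viability assay, with values giving inhibition of cell growth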
Description: SANGER: Inhibition of human SCC-9 cell growth in a cell viability assay.

[27] = test system: HCC1569; format: functional, cell-based, Homo sapiens; settings: Homo sapiens, HCC1569;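 note: growth inhibition of human HCC1569 cells, read out with a cell viability assay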
Description: SANGER: Inhibition of human HCC1569 cell growth in a cell viability assay.

[28] = test system: CAL-27; format: functional, cell-based, Homo sapiens; settings: Homo sapiens, CAL-27;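 note: Viability-based readout, IC50 reflecting inhibition of CAL-27 cell growth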
Description: SANGER: Inhibition of human CAL-27 cell growth in a cell viability assay.

[29] = test system: JEG-3; format: functional, cell-based, Homo sapiens; settings: Homo sapiens, JEG-3;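 note: growth inhibition of human JEG-3 cells, read out with a cell viability assay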
Description: SANGER: Inhibition of human JEG-3 cell growth in a cell viability assay.

[30] = test system: AN3-CA; format: functional, cell-based, Homo sapiens; settings: Homo sapiens, AN3-CA;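 note: growth inhibition of human AN3-CA cells measured by a cell viability assay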
Description: SANGER: Inhibition of human AN3-CA cell growth in a cell viability assay.

[31] = test system: BFTC-909; format: functional, cell-based, Homo sapiens; settings: Homo sapiens, BFTC-909
Description: SANGER: Inhibition of human BFTC-909 cell growth in a cell viability assay.

[32] = test system: SK-HEP1; format: functional, cell-based, Homo sapiens, SK-HEP-1; settings: Homo sapiens, SK-HEP1;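 note: cell viability readout used to quantify reduction in proliferation of human SK-HEP-1 cells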
Description: SANGER: Inhibition of human SK-HEP-1 cell growth in a cell viability assay.

[33] = test system: CAL-85-1; format: functional, cell-based, Homo sapiens; settings: Homo sapiens, CAL-85-1;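 note: growth inhibition of human CAL-85-1 cells, read out with a cell viability assay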
Description: SANGER: Inhibition of human CAL-85-1 cell growth in a cell viability assay.

[34] = test system: Calu-3; format: functional, cell-based, Homo sapiens; settings: Homo sapiens, Calu-3;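 note: growth inhibition of human Calu-3 cells, determined with a cell viability assay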
Description: SANGER: Inhibition of human Calu-3 cell growth in a cell viability assay.

[35] = test system: HSC-3; format: functional, cell-based, Homo sapiens; settings: Homo sapiens, HSC-3
Description: SANGER: Inhibition of human HSC-3 cell growth in a cell viability assay.

[36] = test system: Panc1005; format: functional, cell-based, Homo sapiens; settings: Homo sapiens, Panc1005;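 note: growth inhibition of human PANC-10-05 cells, measured by a cell viability assay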
Description: SANGER: Inhibition of human PANC-10-05 cell growth in a cell viability assay.

[37] = test system: RCM-1; format: functional, cell-based, Homo sapiens; settings: Homo sapiens, RCM-1;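 note: growth inhibition of the RCM-1 line, determined with a cell viability readout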
Description: SANGER: Inhibition of human RCM-1 cell growth in a cell viability assay.

[38] = test system: KYSE-150 cell line; format: functional, cell-based, Homo sapiens; settings: Homo sapiens, KYSE-150;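 note: growth inhibition of human KYSE-150 cells, read out with a cell viability assay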
Description: SANGER: Inhibition of human KYSE-150 cell growth in a cell viability assay.

[39] = test system: SN12C; format: functional, cell-based, Homo sapiens; settings: Homo sapiens, SN12C;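 note: growth inhibition of human SN12C cells, measured by a cell viability assay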
Description: SANGER: Inhibition of human SN12C cell growth in a cell viability assay.

[40] = test system: HOP-92; format: functional, cell-based, Homo sapiens; settings: Homo sapiens, HOP-92;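 note: cell viability readout, with IC50 reflecting inhibition of HOP-92 cell growth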
Description: SANGER: Inhibition of human HOP-92 cell growth in a cell viability assay.

[41] = test system: HuP-T3; format: functional, cell-based, Homo sapiens; settings: Homo sapiens, HuP-T3;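 note: HuP-T3 cell growth inhibition, read out with a cell viability assay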
Description: SANGER: Inhibition of human HuP-T3 cell growth in a cell viability assay.

[42] = test system: SK-MEL-24; format: functional, cell-based, Homo sapiens; settings: Homo sapiens, SK-MEL-24;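 note: growth inhibition read out by a cell viability assay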
Description: SANGER: Inhibition of human SK-MEL-24 cell growth in a cell viability assay.

[43] = test system: PC-14; format: functional, cell-based, Homo sapiens; settings: Homo sapiens, PC-14;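 note: cell viability assay measuring inhibition of PC-14 cell growth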
Description: SANGER: Inhibition of human PC-14 cell growth in a cell viability assay.

Nc1cccc2c1CN(C1CCC(=O)NC1=O)C2=O (stereo unspecified) [LENALIDOMIDE]
IC50 [1]: > 5000 nM
IC50 [2]: > 5000 nM
IC50 [3]: > 5000 nM
IC50 [4]: > 5000 nM
IC50 [5]: > 5000 nM
IC50 [6]: > 5000 nM
IC50 [7]: > 5000 nM
IC50 [8]: > 5000 nM
IC50 [9]: > 5000 nM
IC50 [10]: > 5000 nM
IC50 [11]: > 5000 nM
IC50 [12]: > 5000 nM
IC50 [13]: > 5000 nM
IC50 [14]: > 5000 nM
IC50 [15]: > 5000 nM
IC50 [16]: > 5000 nM
IC50 [17]: > 5000 nM
IC50 [18]: > 5000 nM
IC50 [19]: > 5000 nM
IC50 [20]: > 5000 nM
IC50 [21]: > 5000 nM
IC50 [22]: > 5000 nM
IC50 [23]: > 5000 nM
IC50 [24]: > 5000 nM
IC50 [25]: > 5000 nM
IC50 [26]: > 5000 nM
IC50 [27]: > 5000 nM
IC50 [28]: > 5000 nM
IC50 [29]: > 5000 nM
IC50 [30]: > 5000 nM
IC50 [31]: > 5000 nM
IC50 [32]: > 5000 nM
IC50 [33]: > 5000 nM
IC50 [34]: > 5000 nM
IC50 [35]: > 5000 nM
IC50 [36]: > 5000 nM
IC50 [37]: > 5000 nM
IC50 [38]: > 5000 nM
IC50 [39]: > 5000 nM
IC50 [40]: > 5000 nM
IC50 [41]: > 5000 nM
IC50 [42]: > 5000 nM
IC50 [43]: > 5000 nM

CC1(C)CNc2cc(NC(=O)c3cccnc3NCc3ccncc3)ccc21 [MOTESANIB]
IC50 [1]: > 2000 nM
IC50 [2]: > 2000 nM
IC50 [3]: > 2000 nM
IC50 [4]: > 2000 nM
IC50 [5]: > 2000 nM
IC50 [6]: 469 nM
IC50 [7]: > 2000 nM
IC50 [8]: > 2000 nM
IC50 [9]: > 2000 nM
IC50 [10]: > 2000 nM
IC50 [11]: > 2000 nM
IC50 [12]: > 2000 nM
IC50 [13]: > 2000 nM
IC50 [14]: > 2000 nM
IC50 [15]: > 2000 nM
IC50 [16]: > 2000 nM
IC50 [17]: > 2000 nM
IC50 [18]: > 2000 nM
IC50 [19]: > 2000 nM
IC50 [20]: > 2000 nM
IC50 [21]: > 2000 nM
IC50 [22]: > 2000 nM
IC50 [23]: > 2000 nM
IC50 [24]: > 2000 nM
IC50 [25]: > 2000 nM
IC50 [26]: > 2000 nM
IC50 [27]: > 2000 nM
IC50 [28]: > 2000 nM
IC50 [29]: > 2000 nM
IC50 [30]: > 2000 nM
IC50 [31]: > 2000 nM
IC50 [32]: > 2000 nM
IC50 [33]: > 2000 nM
IC50 [34]: > 2000 nM
IC50 [35]: > 2000 nM
IC50 [36]: > 2000 nM
IC50 [37]: > 2000 nM
IC50 [38]: > 2000 nM
IC50 [39]: > 2000 nM
IC50 [40]: > 2000 nM
IC50 [41]: > 2000 nM
IC50 [42]: > 2000 nM
IC50 [43]: > 2000 nM
